This is an account of results in patent US20240181091A1, “ORAL DELIVERY OF SILICA/ALUMINOSILICATE NANOPARTICLES” (Cornell University, priority 2021, published 2024).

The data set concerns Caco-2 monolayer. The data set is classed as in vitro ADME, human. As for the experimental part: To test that the monolayer well resembled the epithelial lining of the GI tract and formed tight junctions, Lucifer Yellow (LY) was used as a standard. It has been reported that the integrity of a Caco-2 monolayer is good once the Papp of LY across the monolayer is <5×10^−7 cm/s. The measured Papp of LY across all Caco-2 monolayers (see Methods for more details) used in this study is depicted in FIG. 8B, with all values of Papp<3×10^−7 cm/s.
Caco-2 Cell Culture: Caco-2 cells (ATCC) were cultured in RPMI 1640 supplemented with 20% fetal bovine serum and 10k/10k penicillin/streptomycin (Lonza). 75 μL of Caco-2 cells were plated on the apical side of a 96-well Transwell dish at a seeding density of 2×10^5 cells/mL. 75 μL of media was used on the apical side and 235 μL on the basolateral side. The media was changed every other day for a week, followed by changes every day until the Papp of a Lucifer Yellow assay was <5×10^−7 cm/s. Cells were incubated at 37° C. with 5% CO2 and 90% humidity.
Lucifer Yellow Monolayer Integrity Assay: Lucifer Yellow (LY) was dissolved at a concentration of 0.1 mg/mL in Hank's balanced salt solution (HBSS). 75 μL of LY solution was added to the apical side and 235 μL HBSS was added to the basolateral side. […] The concentration of LY on the basolateral side was determined using fluorescence 488/520 ex/em with a Spectramax M2. […]

For Lucifer Yellow [LY], the “Papp of Lucifer Yellow across Caco-2 monolayers” value was < 0.3 ×10⁻⁶ cm/s.
